Measured values taken from ChEMBL document CHEMBL1133694, “Hydroxamic acid derivatives as potent peptide deformylase inhibitors and antibacterial agents” (J Med Chem, 2000).
Converted amounts (≈) assume the structure as drawn.

Legend:
[1] = target: Macrophage metalloelastase (Homo sapiens, UniProt P39900); experiment: Inhibition of human Matrix metalloprotease-12
[2] = target: T1, Interstitial collagenase (Homo sapiens, UniProt P03956); experiment: Inhibition of Matrix metalloprotease-1
T1 sequence (P03956 whole entry): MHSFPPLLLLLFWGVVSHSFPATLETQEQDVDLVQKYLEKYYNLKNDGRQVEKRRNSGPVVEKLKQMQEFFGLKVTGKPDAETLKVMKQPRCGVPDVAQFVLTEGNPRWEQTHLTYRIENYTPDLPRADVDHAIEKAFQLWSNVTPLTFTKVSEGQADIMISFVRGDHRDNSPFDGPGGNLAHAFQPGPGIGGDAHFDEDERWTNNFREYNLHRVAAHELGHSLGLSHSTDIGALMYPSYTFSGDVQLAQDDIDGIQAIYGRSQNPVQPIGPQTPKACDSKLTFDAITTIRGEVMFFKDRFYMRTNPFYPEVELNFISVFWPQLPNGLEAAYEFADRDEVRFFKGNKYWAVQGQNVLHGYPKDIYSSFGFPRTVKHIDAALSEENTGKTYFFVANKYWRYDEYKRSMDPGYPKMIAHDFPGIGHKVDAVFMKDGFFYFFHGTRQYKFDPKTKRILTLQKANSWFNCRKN

[3] = target: Angiotensin-converting enzyme (Homo sapiens, UniProt P12821)
[4] = system: Bacillus subtilis; experiment: In vitro antibacterial activity against Bacillus subtilis ATCC 585969.; format: functional
[5] = target: T2, Neprilysin (Rattus norvegicus, UniProt P07861); experiment: Inhibitory activity against endopeptidase enzyme (NEP).
T2 sequence (P07861 whole entry): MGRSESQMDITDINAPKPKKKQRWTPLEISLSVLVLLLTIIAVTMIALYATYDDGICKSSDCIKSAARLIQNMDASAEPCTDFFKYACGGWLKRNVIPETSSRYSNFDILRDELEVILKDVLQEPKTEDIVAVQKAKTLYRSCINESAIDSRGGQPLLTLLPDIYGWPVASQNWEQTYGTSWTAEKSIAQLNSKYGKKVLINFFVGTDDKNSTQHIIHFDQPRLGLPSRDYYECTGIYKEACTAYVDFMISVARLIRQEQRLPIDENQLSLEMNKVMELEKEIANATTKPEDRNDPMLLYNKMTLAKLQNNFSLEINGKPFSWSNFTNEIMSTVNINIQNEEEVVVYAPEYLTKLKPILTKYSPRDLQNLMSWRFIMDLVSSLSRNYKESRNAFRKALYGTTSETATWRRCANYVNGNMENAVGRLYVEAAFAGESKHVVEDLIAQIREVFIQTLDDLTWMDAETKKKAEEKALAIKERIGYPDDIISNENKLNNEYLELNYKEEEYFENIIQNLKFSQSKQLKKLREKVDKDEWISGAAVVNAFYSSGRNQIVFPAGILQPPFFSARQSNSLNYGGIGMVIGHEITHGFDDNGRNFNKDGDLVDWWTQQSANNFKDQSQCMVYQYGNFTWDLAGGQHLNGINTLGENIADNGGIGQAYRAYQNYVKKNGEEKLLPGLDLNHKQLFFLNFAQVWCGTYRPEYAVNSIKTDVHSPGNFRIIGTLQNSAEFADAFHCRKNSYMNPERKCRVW

[6] = target: Collagenase 3 (Homo sapiens, UniProt P45452); experiment: Inhibition of Matrix metalloprotease-13
[7] = system: Escherichia coli; experiment: In vitro antibacterial activity against isolated Escherichia coli DC2; format: functional
[8] = system: Moraxella catarrhalis; experiment: In vitro antibacterial activity against isolated Moraxella catarrhalis RA21; format: functional
[9] = system: Streptococcus pneumoniae; experiment: In vitro antibacterial activity against Streptococcus pneumoniae ATCC 49619.; format: functional
[10] = system: Mycoplasmoides pneumoniae; experiment: In vitro antibacterial activity against Mycoplasma pneumoniae ATCC 29342.; format: functional
[11] = system: Escherichia coli; experiment: In vitro antibacterial activity against Escherichia coli ATCC 25922.; format: functional
[12] = system: Staphylococcus aureus; experiment: In vitro antibacterial activity against Staphylococcus aureus ATCC 25923.; format: functional
[13] = system: Pseudomonas aeruginosa; experiment: In vitro antibacterial activity against Pseudomonas aeruginosa ATCC 27853.; format: functional
[14] = system: Chlamydia pneumoniae; experiment: In vitro antibacterial activity against Chlamydia pneumoniae AR-39.; format: functional
[15] = target: T3, Endothelin-converting enzyme 1 (Homo sapiens, UniProt P42892); experiment: Inhibitory activity against Endothelin-converting enzyme 1
T3 sequence (P42892 whole entry): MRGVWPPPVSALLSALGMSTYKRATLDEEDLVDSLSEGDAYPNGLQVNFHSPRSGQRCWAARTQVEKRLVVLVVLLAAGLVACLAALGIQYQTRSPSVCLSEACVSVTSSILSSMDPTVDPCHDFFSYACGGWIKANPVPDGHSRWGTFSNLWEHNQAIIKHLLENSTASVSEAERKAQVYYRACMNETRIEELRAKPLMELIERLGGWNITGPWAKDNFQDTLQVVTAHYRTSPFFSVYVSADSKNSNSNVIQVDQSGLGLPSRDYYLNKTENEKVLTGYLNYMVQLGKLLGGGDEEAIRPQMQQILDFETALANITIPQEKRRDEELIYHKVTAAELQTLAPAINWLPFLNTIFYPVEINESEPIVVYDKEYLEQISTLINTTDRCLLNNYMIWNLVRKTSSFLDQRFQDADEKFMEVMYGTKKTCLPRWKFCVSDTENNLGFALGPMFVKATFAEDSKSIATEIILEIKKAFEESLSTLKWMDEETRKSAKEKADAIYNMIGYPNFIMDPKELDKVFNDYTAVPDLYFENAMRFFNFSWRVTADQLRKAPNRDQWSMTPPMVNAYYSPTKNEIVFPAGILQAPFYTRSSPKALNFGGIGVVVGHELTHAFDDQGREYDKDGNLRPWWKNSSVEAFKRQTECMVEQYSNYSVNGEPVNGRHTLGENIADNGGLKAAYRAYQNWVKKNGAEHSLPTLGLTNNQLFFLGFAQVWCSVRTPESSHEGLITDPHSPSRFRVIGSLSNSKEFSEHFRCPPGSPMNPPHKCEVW

[16] = system: Haemophilus influenzae; experiment: In vitro antibacterial activity against Haemophilus influenzae 11.; format: functional
[17] = target: T4, Peptide deformylase (Escherichia coli, UniProt Q9JN24); experiment: Inhibitory activity against isolated Escherichia coli peptidyl deformylase (PDF) enzyme containing iron.
T4 sequence (Q9JN24 whole entry): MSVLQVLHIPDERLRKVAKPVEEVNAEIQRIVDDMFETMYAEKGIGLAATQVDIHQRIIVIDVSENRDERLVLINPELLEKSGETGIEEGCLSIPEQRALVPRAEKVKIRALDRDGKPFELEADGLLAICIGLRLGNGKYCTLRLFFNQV

[18] = system: Enterococcus faecalis; experiment: In vitro antibacterial activity against Enterococcus faecalis ATCC 29212.; format: functional
[19] = target: T2, Neprilysin; experiment: Inhibitory activity against neutral endopeptidase enzyme (NEP).
[20] = system: Streptococcus pneumoniae; experiment: In vitro antibacterial activity against Streptococcus pneumoniae 1/1 (penicillin resistant).; format: functional
[21] = system: Enterococcus faecium; experiment: In vitro antibacterial activity against Enterococcus faecium vanA E25_1.; format: functional
[22] = system: peptide deformylase (Streptococcus pneumoniae); experiment: Inhibitory activity against PDF isolated from Streptococcus pneumoniae
[23] = system: Stenotrophomonas maltophilia; experiment: In vitro antibacterial activity against Stenotrophomonas maltophilia 1AC739.; format: functional
[24] = Inhibitory activity against PDF isolated from Bacillus subtilis

Chain of Angiotensin-converting enzyme (P12821 whole entry): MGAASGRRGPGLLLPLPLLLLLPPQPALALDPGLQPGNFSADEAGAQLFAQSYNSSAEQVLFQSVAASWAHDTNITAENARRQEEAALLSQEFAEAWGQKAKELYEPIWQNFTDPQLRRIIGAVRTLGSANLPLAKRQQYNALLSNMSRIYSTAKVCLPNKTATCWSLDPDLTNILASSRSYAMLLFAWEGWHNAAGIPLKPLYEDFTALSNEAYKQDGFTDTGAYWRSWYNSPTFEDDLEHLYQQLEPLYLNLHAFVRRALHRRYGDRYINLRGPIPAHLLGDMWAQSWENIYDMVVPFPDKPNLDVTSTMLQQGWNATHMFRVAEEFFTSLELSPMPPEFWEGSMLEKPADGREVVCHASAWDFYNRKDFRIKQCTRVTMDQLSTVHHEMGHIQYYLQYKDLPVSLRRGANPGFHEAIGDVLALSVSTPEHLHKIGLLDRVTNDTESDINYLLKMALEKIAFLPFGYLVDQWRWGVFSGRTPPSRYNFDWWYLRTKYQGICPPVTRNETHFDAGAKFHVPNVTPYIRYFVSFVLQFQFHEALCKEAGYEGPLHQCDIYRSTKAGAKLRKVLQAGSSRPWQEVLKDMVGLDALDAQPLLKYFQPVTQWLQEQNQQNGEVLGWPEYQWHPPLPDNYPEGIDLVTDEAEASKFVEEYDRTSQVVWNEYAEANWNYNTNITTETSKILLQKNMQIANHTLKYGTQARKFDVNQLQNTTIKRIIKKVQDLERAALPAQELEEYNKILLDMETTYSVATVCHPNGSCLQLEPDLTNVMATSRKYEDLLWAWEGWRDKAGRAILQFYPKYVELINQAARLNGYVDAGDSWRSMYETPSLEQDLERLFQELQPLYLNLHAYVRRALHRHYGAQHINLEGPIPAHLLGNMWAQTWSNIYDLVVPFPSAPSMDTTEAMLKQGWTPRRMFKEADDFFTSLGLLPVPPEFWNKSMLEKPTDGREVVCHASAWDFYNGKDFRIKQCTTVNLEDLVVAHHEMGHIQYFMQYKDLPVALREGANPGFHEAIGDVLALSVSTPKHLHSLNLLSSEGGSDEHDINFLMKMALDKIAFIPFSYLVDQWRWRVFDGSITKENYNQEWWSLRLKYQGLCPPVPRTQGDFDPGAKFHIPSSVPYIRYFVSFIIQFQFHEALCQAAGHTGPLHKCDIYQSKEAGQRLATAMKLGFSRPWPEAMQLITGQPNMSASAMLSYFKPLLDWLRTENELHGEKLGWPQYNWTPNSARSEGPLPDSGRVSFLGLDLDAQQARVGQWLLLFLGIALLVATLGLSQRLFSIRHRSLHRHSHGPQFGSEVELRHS
Chain of Macrophage metalloelastase (P39900 whole entry): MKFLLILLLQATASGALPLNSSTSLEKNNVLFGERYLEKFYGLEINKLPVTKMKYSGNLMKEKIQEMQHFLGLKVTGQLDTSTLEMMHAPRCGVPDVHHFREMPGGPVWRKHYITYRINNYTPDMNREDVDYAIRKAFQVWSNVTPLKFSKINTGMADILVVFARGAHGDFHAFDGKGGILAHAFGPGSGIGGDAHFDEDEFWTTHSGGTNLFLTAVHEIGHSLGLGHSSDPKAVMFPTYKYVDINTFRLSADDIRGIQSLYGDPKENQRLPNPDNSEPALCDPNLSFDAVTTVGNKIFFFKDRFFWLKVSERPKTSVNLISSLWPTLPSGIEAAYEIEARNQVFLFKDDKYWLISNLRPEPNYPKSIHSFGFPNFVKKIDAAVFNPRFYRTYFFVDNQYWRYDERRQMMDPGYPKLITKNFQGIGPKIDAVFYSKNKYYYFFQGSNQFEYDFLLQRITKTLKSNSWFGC

SMILES	MIC [7]	MIC [8]	IC50 [17]	other results
CCCC[C@H](CC(=O)NO)S(=O)(=O)c1ccccc1	2 mg/L (≈ 7.01 µM)	< 0.25 mg/L	–	IC50 [1]: 0.042 µM; IC50 [2]: 0.15 µM; IC50 [3]: 34 µM; MIC [4]: 1 mg/L (≈ 3.5 µM); IC50 [5]: 2.5 µM; IC50 [6]: 0.079 µM; MIC [9]: 128 mg/L (≈ 449 µM); MIC [10]: 0.5 mg/L (≈ 1.75 µM); MIC [11]: 128 mg/L (≈ 449 µM); MIC [12]: 128 mg/L (≈ 449 µM); MIC [13]: > 128 mg/L; MIC [14]: 0.5 mg/L (≈ 1.75 µM); IC50 [15]: > 100 µM; MIC [16]: 2 mg/L (≈ 7.01 µM)
CCCC[C@@H](CC(=O)NO)S(=O)(=O)c1ccccc1	> 128 mg/L	16 mg/L (≈ 56.1 µM)	–	IC50 [1]: 0.009 µM; IC50 [2]: 0.3 µM; IC50 [3]: > 100 µM; IC50 [5]: 15 µM; IC50 [6]: 0.018 µM; IC50 [15]: > 100 µM
CC(CC(=O)NO)S(=O)(=O)c1ccccc1 (configuration not stated)	> 32 mg/L	> 32 mg/L	–	–
CCCCC(CC(=O)NO)[S+]([O-])c1ccc(Br)cc1 (configuration not stated)	1 mg/L (≈ 2.87 µM)	< 0.125 mg/L	0.21 µM	–
CCCCC(CC(=O)NO)S(=O)(=O)c1cccc(OC)c1 (configuration not stated)	16 mg/L (≈ 50.7 µM)	2 mg/L (≈ 6.34 µM)	0.086 µM	–
CCCCC(CC(=O)NO)S(=O)(=O)c1ccc(OC)cc1 (configuration not stated)	16 mg/L (≈ 50.7 µM)	0.5 mg/L (≈ 1.59 µM)	0.031 µM	–
CCCC[C@H](C(O)C(=O)NO)[S+]([O-])c1ccccc1 (some centres not stated)	1 mg/L (≈ 3.5 µM)	< 0.06 mg/L	–	–
CCCC[C@@H](C(O)C(=O)NO)[S+]([O-])c1ccccc1 (some centres not stated)	32 mg/L (≈ 112 µM)	4 mg/L (≈ 14 µM)	–	–
CCCCCC(CC(=O)NO)S(=O)(=O)c1ccccc1 (configuration not stated)	2 mg/L (≈ 6.68 µM)	< 0.06 mg/L	0.14 µM	–
CCCCC(CC(=O)NO)[S+]([O-])c1ccccc1 (configuration not stated)	1 mg/L (≈ 3.71 µM)	< 0.25 mg/L	–	MIC [18]: > 128 mg/L; IC50 [19]: 2.6 µM; IC50 [2]: 0.093 µM; MIC [20]: 64 mg/L (≈ 238 µM); IC50 [3]: > 100 µM; MIC [4]: 0.25 mg/L (≈ 0.928 µM); MIC [21]: > 128 mg/L; IC50 [22]: 0.24 µM; MIC [9]: 32 mg/L (≈ 119 µM); MIC [10]: 0.25 mg/L (≈ 0.928 µM); MIC [23]: < 0.25 mg/L; MIC [11]: 32 mg/L (≈ 119 µM); IC50 [24]: 0.046 µM; MIC [12]: 16 mg/L (≈ 59.4 µM); MIC [13]: > 128 mg/L; MIC [14]: 0.25 mg/L (≈ 0.928 µM); IC50 [15]: > 100 µM; MIC [16]: 1 mg/L (≈ 3.71 µM)
CCCCCCS(=O)(=O)C(CCCC)CC(=O)NO (configuration not stated)	64 mg/L (≈ 218 µM)	4 mg/L (≈ 13.6 µM)	–	–
CCCCC(CC(=O)NO)S(=O)(=O)c1ccc(Br)cc1 (configuration not stated)	16 mg/L (≈ 43.9 µM)	2 mg/L (≈ 5.49 µM)	–	–
CCCC(CC(=O)NO)S(=O)(=O)c1ccccc1 (configuration not stated)	64 mg/L (≈ 236 µM)	4 mg/L (≈ 14.7 µM)	0.16 µM	–
CCCCC(CC(=O)NO)[S+]([O-])c1ccc2ccccc2c1 (configuration not stated)	2 mg/L (≈ 6.26 µM)	< 0.25 mg/L	0.064 µM	–
CCCCC(CC(=O)NO)[S+]([O-])c1cccc(OC)c1 (configuration not stated)	4 mg/L (≈ 13.4 µM)	0.25 mg/L (≈ 0.835 µM)	0.094 µM	–
CCCCC(CC(=O)NO)[S+]([O-])c1ccc(OC)cc1 (configuration not stated)	2 mg/L (≈ 6.68 µM)	< 0.25 mg/L	0.099 µM	–
CCC(CC(=O)NO)S(=O)(=O)c1ccccc1 (configuration not stated)	> 64 mg/L	> 64 mg/L	–	–
CCCCC(CC(=O)NO)S(=O)(=O)c1ccc(NC(C)=O)cc1 (configuration not stated)	16 mg/L (≈ 46.7 µM)	1 mg/L (≈ 2.92 µM)	0.011 µM	–
O=C(CC(c1ccccc1)S(=O)(=O)c1ccccc1)NO (configuration not stated)	32 mg/L (≈ 105 µM)	8 mg/L (≈ 26.2 µM)	0.16 µM	–
O=C(CC(c1ccc2c(c1)OCO2)S(=O)(=O)c1ccccc1)NO (configuration not stated)	16 mg/L (≈ 45.8 µM)	1 mg/L (≈ 2.86 µM)	–	–
CCCCC(CC(=O)NO)S(=O)(=O)Cc1ccccc1 (configuration not stated)	128 mg/L (≈ 428 µM)	16 mg/L (≈ 53.4 µM)	0.19 µM	–
O=C(CC(c1ccco1)S(=O)(=O)c1ccccc1)NO (configuration not stated)	32 mg/L (≈ 108 µM)	4 mg/L (≈ 13.5 µM)	–	–
CCCCC[C@H](CC(=O)NO)C(=O)N[C@H](C(=O)N1CCC[C@H]1CO)C(C)C [ACTINONIN]	1 mg/L (≈ 2.59 µM)	< 0.06 mg/L	–	MIC [18]: > 128 mg/L; MIC [20]: 128 mg/L (≈ 332 µM); MIC [4]: 8 mg/L (≈ 20.8 µM); MIC [21]: > 128 mg/L; MIC [9]: 32 mg/L (≈ 83 µM); MIC [10]: > 64 mg/L; MIC [23]: 16 mg/L (≈ 41.5 µM); MIC [11]: 64 mg/L (≈ 166 µM); MIC [12]: 32 mg/L (≈ 83 µM); MIC [13]: > 128 mg/L; MIC [14]: 4 mg/L (≈ 10.4 µM); MIC [16]: 2 mg/L (≈ 5.19 µM)
